# In paper PMC8494430, “Development of a fluorogenic ADAMTS-7 substrate” (Journal of Enzyme Inhibition and Medicinal Chemistry, 2021):
# What was measured:
# ADAMTS-1 = target: T1, ADAMTS-1 (Homo sapiens, UniProt Q9UHI8); assay: Cleavage of ATS7FP7 by ADAMTS-1; type: biochemical; settings: ADAMTS-1 10 nM, ATS7FP7 40 μM
# T1 construct: made in house
# T1 sequence (Q9UHI8 253-967): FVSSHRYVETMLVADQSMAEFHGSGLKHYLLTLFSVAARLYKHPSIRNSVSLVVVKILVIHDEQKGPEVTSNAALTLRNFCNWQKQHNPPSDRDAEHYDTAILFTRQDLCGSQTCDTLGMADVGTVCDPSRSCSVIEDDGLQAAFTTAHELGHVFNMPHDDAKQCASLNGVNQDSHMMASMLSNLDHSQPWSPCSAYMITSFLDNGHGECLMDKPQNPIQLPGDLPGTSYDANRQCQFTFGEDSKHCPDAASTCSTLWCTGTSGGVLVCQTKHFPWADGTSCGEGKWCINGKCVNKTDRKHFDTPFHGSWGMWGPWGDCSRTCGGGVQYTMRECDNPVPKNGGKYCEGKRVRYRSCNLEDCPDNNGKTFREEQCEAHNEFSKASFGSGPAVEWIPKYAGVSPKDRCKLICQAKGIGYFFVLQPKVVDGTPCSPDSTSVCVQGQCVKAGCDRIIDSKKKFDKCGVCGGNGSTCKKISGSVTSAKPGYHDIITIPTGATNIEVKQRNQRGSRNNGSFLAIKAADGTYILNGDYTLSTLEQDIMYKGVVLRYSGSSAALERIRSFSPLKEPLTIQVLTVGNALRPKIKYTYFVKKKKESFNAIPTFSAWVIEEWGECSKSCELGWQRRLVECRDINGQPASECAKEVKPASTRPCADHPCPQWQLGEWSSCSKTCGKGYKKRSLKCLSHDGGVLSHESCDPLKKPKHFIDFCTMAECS
# Procedure: All enzyme assays were conducted in TNC-B buffer (50 mM Tris- HCl, pH 7.5, 150 mM NaCl, 10 mM CaCl2, and 0.02% NaN3) at 37 °C in 384 well plates (Cat. No: 784900, Greiner Bio-One, Austria). To avoid the formation of inhibitor or peptide aggregates, the detergent Brij-35 (0.05%) was added to TNC-B[13]. For inhibition studies, stock solutions of chemical compounds were prepared in dimethyl sulfoxide (DMSO) (10 mM). These were further diluted at different concentrations in TNC-B and incubated with ADAMTS-1, ADAMTS-4, ADAMTS-5, ADAMTS-7 or ADAMTS-8 (10 nM) for 1 h at 37 °C. Blank samples were prepared using buffer only and the rate of cleavage for blank reactions was subtracted from the rates measured in the presence of enzyme. Upon addition of the indicated ADAMTS-7 FRET substrates (40 µM), the fluorescence was measured immediately using a FLUOstar Omega microplate reader (BMG Labtech, Germany) with an excitation filter wavelength of 485 nm and an emission filter wavelength of 520 nm.
# Supplementary Figure 6: Cleavage of ATS7FP7 by members of the ADAMTS family. A) ATS7FP7 (40 μM) was incubated either with ADAMTS-1, -4, -5, -7, or -8 (10 nM). Fluorescence was detected (λex = 485 nm, λem = 520 nm) for 8 h at 37°C and reported as relative fluorescence units (RFU). The data are presented as average ± SEM (n=3) and were fitted with a linear regression. […]
# [1] = Appearance of solution upon dilution of peptide in assay buffer (solubility); type: physicochemical; settings: 10 mM DMSO stock diluted in assay buffer
# Procedure: The cleavage sites ^193Arg↓Ala^194 and ^195Glu↓Ala^196 were chosen to design the FRET substrate ATS7FP0 (Table 1). This peptide covers residues Ala^188-Ala^198 in LTBP4S and contains a FAM/TAMRA fluorophore/quencher pair. The quencher is covalently linked to the ε amino group of an extra C-terminal lysine residue. Stock solutions were routinely prepared at 10 mM in DMSO and stored at −80 °C. […] This was most likely due to the high content in hydrophobic amino acids of this peptide, which added to the hydrophobicity of the fluorophore/quencher pair. Nevertheless, ATS7FP0 generated fluorescence upon cleavage by ADAMTS-7 (Figure 2(A)). With the aim to improve both solubility and cleavage rate by ADAMTS-7, seven additional peptides were designed using the sequence of ATS7FP0 as a starting point. The N-terminal alanine residue present in ATS7FP0 was removed to generate peptide ATS7FP7 with a reduced aliphatic index (Table 1). […] To assess the effect of a P4′ proline residue on the cleavage rate, peptide ATS7FP7 was modified to generate ATS7FP8. […] Since we also determined that ADAMTS-7 prefers arginine in P1 (Figure 1(D)), we mutated one alanine residue in the parental sequence into arginine with the aim to improve both cleavage rate and hydrophilicity, thus generating peptide ATS7FP3. […]
substance,measurement,setting,value
Glu-Ala-Ala-Ala-Arg↓Ala-Glu↓Ala-Ala-Ala-Lys [ATS7FP7],cleavage by ADAMTS-1,ADAMTS-1,neither ADAMTS-1 nor ADAMTS-8 were able to cleave ATS7FP7
same,appearance of solution upon dilution in the assay buffer (solubility),[1],homogeneous
